# Assay results reported in US11065296B2, “Antimicrobial peptide, its analog and use” (City University of Hong Kong, priority 2018, dated 2021).
# Peptide text beside a SMILES is read from it.
# How the values were obtained:
# Assay type in all cases: cell-based
# [1] = system: Streptococcus pyogenes ATCC 14289
# Description: (§3) MIC denotes the lowest concentration of an antimicrobial agent that can inhibit the growth of bacteria after overnight incubation.
# (§4) Bacteria were grown in their respective media (Table 2 above) overnight at 37° C. or room temperature with constant shaking and then diluted to 10^6 CFU/ml in their respective medium. Stock solutions of peptides at 0.68 mM were prepared in distilled water. Bacteria and peptide were incubated (50 μl: 50 μl) to make the final peptide concentrations (0.68, 3.4, 6.8, 13.7, 34.1, 68.3, 136.5 μM) in a 96-microtitre plate and incubated for 24 h with constant shaking. […] Absorbance at 600 nm was detected every 3 h up to 24 h to obtain the growth curves. The minimal inhibition concentration (MIC) was defined as the lowest concentration of an antimicrobial agent that could inhibit the growth of bacteria after overnight incubation.
# [2] = system: Staphylococcus aureus ATCC 29213
# Description: as §3, §4
# [3] = system: Edwardsiella tarda PE210
# Description: as §3, §4
# [4] = system: Acinetobacter baumannii ATCC 19606
# Description: as §3, §4
# [5] = system: Escherichia coli BL21 (DE3)
# Description: as §3, §4
# [6] = system: Klebsiella pneumoniae (NDM-1) ATCC BAA-2470
# Description: as §3, §4
# [7] = system: Staphylococcus epidermidis ATCC 12228
# Description: as §3, §4
# [8] = system: Pseudomonas aeruginosa A
# [9] = system: CpxR; test: Quantitative real-time PCR; details: E. tarda
# Description: (§1) Results are expressed as 2^(−Delta Delta C (T)). […] Results are expressed as 2^(−Delta Delta C (T)).
# (§2) Each group has 6 biological replicates. […] Gene-specific primers were designed with Primer-BLAST (NCBI).
# [10] = system: RpoE; test: Quantitative real-time PCR; details: E. tarda, 6.8 μM, 1 hr
# Description: as §1, §2
structure (smiles),measurement,setting,value
"CC[C@H](C)[C@H](N)C(=O)N[C@@H](CCCNC(=N)N)C(=O)N[C@H](C(=O)N[C@H](C(=O)N[C@@H](CC(C)C)C(=O)N[C@@H](CCCNC(=N)N)C(=O)N[C@@H](C)C(=O)N[C@@H](CCC(N)=O)C(=O)NCC(=O)N[C@@H](C)C(=O)N[C@@H](CC(C)C)C(=O)N[C@@H](CCCCN)C(=O)N[C@H](C(=O)O)[C@@H](C)CC)[C@@H](C)CC)[C@@H](C)CC [Peptide A, IRIILRAQGALKI] (H-IRIILRAQGALKI-OH; N-terminus and C-terminus assumed)",MICs,[1],34.1 µM
same,MICs,[2],64 µM
same,MICs,[3],6.8 µM
same,MICs,[4],6.8 µM
same,MICs,[5],5.5 µM
same,MICs,[6],21.8 µM
same,MICs,[7],2.7 µM
same,MICs,[8],34.1 µM
same,CpxR mRNA expression,"[9]; Peptide A 6.8 μM, 1 hr",significantly reduced
same,CpxR expression induced by ampicillin,"[9]; Peptide A+Ampicillin (3.4 μM; 71.5 μM), 1 hour",revert the induction of CpxR expression
same,RpoE mRNA expression,[10],significantly induced
